Laboratory results taken from patent US11396453B2, “Metal compound having phase transformation and method of preparing the same” (WEBIOTREE CO., LTD, priority 2020, dated 2022).

Assays:
[1] = Dispersibility evaluation: transmission through PVDF 0.45 μm filter in pH 4.5 buffer, measured by HPLC; type: physicochemical; details: 38° C.
Method: Confirmation Experiment by Difference in Particle Size and Concentration in Weakly Acidic Solvent of Metal Phase Transformation Compound and Peptide (PalGHK)
PVDF 0.45 μm filter is used
Measurement is performed using HPLC with stirring for 24 hours.
Temperature conditions similar to the temperature inside the body (38° C.) is maintained
The solvent is the same as the pH 4.5 buffer, and experiment is performed at 500 or 1000 ppm based on the peptide content of the sample raw material.
Concentration is calculated based on the peptide content (approximately 71%) in the metal compound.
Concentration is calculated based on the peptide content (about 83%) in the peptide (palGHK).

[2] = Particle size by DLS (Zetasizer Nano ZS90); type: physicochemical; details: dispersant water, 25° C.
Method: Instrument: Zetasizer Nano ZS90
The particle size of the powder was measured by Zetasizer of Malvern Panalytical Ltd. (UK) using […], and the particle size was measured after dispersing the sample in tertiary distilled water using the model name NANO ZS ZS90.

- dispersibility (filter transmission) ([1]; 500 ppm based on peptide content, time 0 hr): 0%
- dispersibility (filter transmission) ([1]; 500 ppm based on peptide content, time 2 hr): 21.3%
- dispersibility (filter transmission) ([1]; 500 ppm based on peptide content, time 4 hr): 27.4%
- dispersibility (filter transmission) ([1]; 500 ppm based on peptide content, time 6 hr): 37.6%
- dispersibility (filter transmission) ([1]; 500 ppm based on peptide content, time 8 hr): 39.8%
- dispersibility (filter transmission) ([1]; 500 ppm based on peptide content, time 10 hr): 37.8%
- dispersibility (filter transmission) ([1]; 500 ppm based on peptide content, time 12 hr): 35.6%
- dispersibility (filter transmission) ([1]; 500 ppm based on peptide content, time 12 hr, listed as peptide): about 35%
- dispersibility (filter transmission) ([1]; 1000 ppm based on peptide content, time 0 hr): 0%
- dispersibility (filter transmission) ([1]; 1000 ppm based on peptide content, time 2 hr): 18.7%
- dispersibility (filter transmission) ([1]; 1000 ppm based on peptide content, time 4 hr): 27.8%
- dispersibility (filter transmission) ([1]; 1000 ppm based on peptide content, time 6 hr): 33.2%
- dispersibility (filter transmission) ([1]; 1000 ppm based on peptide content, time 8 hr): 42.9%
- dispersibility (filter transmission) ([1]; 1000 ppm based on peptide content, time 10 hr): 47.8%
- dispersibility (filter transmission) ([1]; 1000 ppm based on peptide content, time 12 hr): 47.8%
- dispersibility (filter transmission) ([1]; 1000 ppm based on peptide content, time 12 hr, listed as peptide): about 47%
- average size (DLS) of transmitted particles ([2]; 500 ppm): 13.09 nm
- average size (DLS) of transmitted particles ([2]; 1000 ppm): 12.18 nm
Substance: palmitoyl-GHK [palGHK]
